Assay results as given in US12624017B2, “Salt form of isoquinolinone type compound as rock inhibitor and preparation method therefor” (GUANGZHOU OCUSUN OPHTHALMIC BIOTECHNOLOGY CO., LTD., priority 2020, dated 2026).

Tests used:
[1] = test system: New Zealand rabbits with normal intraocular pressure; test: Intraocular pressure reduction, normal intraocular pressure, Day 1 (Operation II); assay type: in vivo, New Zealand white rabbits; conditions: for Average intraocular pressure in both eyes: Day 1
Description: (§1) An intraocular pressure reduction effect and potential ocular toxicity of the compound of formula (I) were inspected with rabbits with normal intraocular pressure by repeated administration of eye drops for 14 days.
(§2) Male New Zealand white rabbits, aged 97 to 127 days, weighted 2.6-3.5 kg, purchased from Pizhou Oriental Breeding Co., Ltd.
42 male New Zealand white rabbits were randomly grouped into 7 groups according to body weights, 6 rabbits/group. Among the animals in Groups 1-7, the left eye was administrated dropwise with normal saline, and the right eye was administrated dropwise with a solvent/control/test article in an administration volume of 50 μL/eye respectively, once a day for 14 consecutive days, and the day of first administration was recorded as Day 1. The intraocular pressures of the animals were measured before administration on Day 1, as well as at 1 h, 2 h, 4 h, 6 h, 8 h and 10 h after administration on Day 1 (Table 10).

[2] = test system: New Zealand rabbits with normal intraocular pressure; test: Intraocular pressure reduction, normal intraocular pressure, eye drops in both eyes for 14 days (Operation I); assay type: in vivo, New Zealand white rabbits; conditions: 0.5 mg/mL once a day, 4 h after daily administration; for Change in intraocular pressure: vs negative control
Description: as §1, §2
The Male New Zealand white rabbits were randomly divided into 7 groups according to body weights, 6 rabbits/group. The animals in Groups 1 to 7 were administrated dropwise with a solvent/control/test article in both eyes in an administration volume of 50 μL/eye, once a day for 14 consecutive days, and the day of first administration was recorded as Day 1. The intraocular pressures of the animals were measured before administration, as well as at 1, 2, 4, 6, 8 and 10 h after administration, respectively. On Days 2 to 14, the intraocular pressures of animals in the K-115 administration group were measured at 1 h after daily administration; and intraocular pressures of the animals in the remaining groups were measured at 4 h after daily administration.

Cc1ccc(C(=O)OCn2cc(C)c3c(S(=O)(=O)N4CC[C@H](N)C4)cccc3c2=O)c(C)c1 [Compound of formula (I)]
Average intraocular pressure in both eyes ([1]; 0.25 mg/mL in right eye, 1 h after administration): 6.22 mmHg
Average intraocular pressure in both eyes ([1]; 0.25 mg/mL in right eye, 2 h after administration): 6.17 mmHg
Average intraocular pressure in both eyes ([1]; 0.25 mg/mL in right eye, 4 h after administration): 6.67 mmHg
Average intraocular pressure in both eyes ([1]; 0.25 mg/mL in right eye, 6 h after administration): 8.06 mmHg
Average intraocular pressure in both eyes ([1]; 0.25 mg/mL in right eye, 8 h after administration): 9.72 mmHg
Average intraocular pressure in both eyes ([1]; 0.25 mg/mL in right eye, 10 h after administration): 10.95 mmHg
Average intraocular pressure in both eyes ([1]; 0.25 mg/mL in right eye, before administration): 9.84 mmHg
Average intraocular pressure in both eyes ([1]; 0.5 mg/mL in right eye, 1 h after administration): 5.39 mmHg
Average intraocular pressure in both eyes ([1]; 0.5 mg/mL in right eye, 2 h after administration): 5.50 mmHg
Average intraocular pressure in both eyes ([1]; 0.5 mg/mL in right eye, 4 h after administration): 6.95 mmHg
Average intraocular pressure in both eyes ([1]; 0.5 mg/mL in right eye, 6 h after administration): 8.94 mmHg
Average intraocular pressure in both eyes ([1]; 0.5 mg/mL in right eye, 8 h after administration): 9.89 mmHg
Average intraocular pressure in both eyes ([1]; 0.5 mg/mL in right eye, 10 h after administration): 11.56 mmHg
Average intraocular pressure in both eyes ([1]; 0.5 mg/mL in right eye, before administration): 9.22 mmHg
Average intraocular pressure in both eyes ([1]; 1.0 mg/mL in right eye, 1 h after administration): 5.56 mmHg
Average intraocular pressure in both eyes ([1]; 1.0 mg/mL in right eye, 2 h after administration): 5.39 mmHg
Average intraocular pressure in both eyes ([1]; 1.0 mg/mL in right eye, 4 h after administration): 6.67 mmHg
Average intraocular pressure in both eyes ([1]; 1.0 mg/mL in right eye, 6 h after administration): 7.33 mmHg
Average intraocular pressure in both eyes ([1]; 1.0 mg/mL in right eye, 8 h after administration): 10.50 mmHg
Average intraocular pressure in both eyes ([1]; 1.0 mg/mL in right eye, 10 h after administration): 10.89 mmHg
Average intraocular pressure in both eyes ([1]; 1.0 mg/mL in right eye, before administration): 9.17 mmHg
Average intraocular pressure in both eyes ([1]; 2.0 mg/mL in right eye, 1 h after administration): 8.11 mmHg
Average intraocular pressure in both eyes ([1]; 2.0 mg/mL in right eye, 2 h after administration): 5.84 mmHg
Average intraocular pressure in both eyes ([1]; 2.0 mg/mL in right eye, 4 h after administration): 6.06 mmHg
Average intraocular pressure in both eyes ([1]; 2.0 mg/mL in right eye, 6 h after administration): 7.11 mmHg
Average intraocular pressure in both eyes ([1]; 2.0 mg/mL in right eye, 8 h after administration): 9.00 mmHg
Average intraocular pressure in both eyes ([1]; 2.0 mg/mL in right eye, 10 h after administration): 10.05 mmHg
Average intraocular pressure in both eyes ([1]; 2.0 mg/mL in right eye, before administration): 9.72 mmHg
Average intraocular pressure in both eyes ([1]; 4.0 mg/mL in right eye, 1 h after administration): 6.61 mmHg
Average intraocular pressure in both eyes ([1]; 4.0 mg/mL in right eye, 2 h after administration): 5.84 mmHg
Average intraocular pressure in both eyes ([1]; 4.0 mg/mL in right eye, 4 h after administration): 5.72 mmHg
Average intraocular pressure in both eyes ([1]; 4.0 mg/mL in right eye, 6 h after administration): 6.61 mmHg
Average intraocular pressure in both eyes ([1]; 4.0 mg/mL in right eye, 8 h after administration): 8.39 mmHg
Average intraocular pressure in both eyes ([1]; 4.0 mg/mL in right eye, 10 h after administration): 10.67 mmHg
Average intraocular pressure in both eyes ([1]; 4.0 mg/mL in right eye, before administration): 10.00 mmHg
Efficacy of single administration (conclusion) ([1]; all tested doses (0.25 to 4.0 mg/mL), compared with K-115): better efficacy
Average intraocular pressure in both eyes ([2]; Day 2): 7.94 mmHg
Change in intraocular pressure ([2]; Day 2): 3.14 mmHg
Average intraocular pressure in both eyes ([2]; Day 3): 7.31 mmHg
Change in intraocular pressure ([2]; Day 3): 3.08 mmHg
Average intraocular pressure in both eyes ([2]; Day 4): 7.78 mmHg
Change in intraocular pressure ([2]; Day 4): 2.83 mmHg
Average intraocular pressure in both eyes ([2]; Day 5): 7.19 mmHg
Change in intraocular pressure ([2]; Day 5): 3.78 mmHg
Average intraocular pressure in both eyes ([2]; Day 6): 6.61 mmHg
Change in intraocular pressure ([2]; Day 6): 2.7 mmHg
Average intraocular pressure in both eyes ([2]; Day 7): 6.00 mmHg
Change in intraocular pressure ([2]; Day 7): 4.06 mmHg
Change in intraocular pressure ([2]; Day 8): 4.2 mmHg
Change in intraocular pressure ([2]; Day 9): 3.25 mmHg
